# Data reported in the supplement of paper PMC11061612.
# What was measured:
# Assay in all cases: Bliss excess, mean over the matrix (fraction); higher = more synergy
# [1] = tested on: COR-L88 (Small Cell Lung Carcinoma)
# Outline: (§1)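 Cell lines grown in DMEM/F12 or RPMI with 10% FBS were plated in 1536-well plates and held 24 hours at 37°C, 5% CO2 before 72 hours of exposure to two-drug dose matrices, with DMSO typically at 0.2%. CellTiter-Glo 2.0 luminescence gave viability, which was converted to inhibition. Vehicle wells were set to 0 and blank wells to 1. Combination Emax is the second-highest inhibition in the matrix, and Bliss excess is the observed combination effect minus the expected EA + EB − EA·EB, where EA and EB are the single-agent effects.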
# [2] = tested on: C-33-A (Cervical Carcinoma)
# Outline: as §1
# [3] = tested on: PA-TU-8988T (Pancreatic Carcinoma)
# Outline: as §1
# [4] = tested on: DBTRG-05MG (Glioblastoma)
# Outline: as §1
# [5] = tested on: SK-N-SH (Neuroblastoma)
# Outline: as §1
# [6] = tested on: NCI-H226 (Mesothelioma)
# Outline: as §1
# [7] = tested on: ES6 (Ewing's Sarcoma)
# Outline: as §1
# [8] = tested on: LS-1034 (Colorectal Carcinoma)
# Outline: as §1
# [9] = tested on: NCI-H1876 (Small Cell Lung Carcinoma)
# Outline: as §1
# [10] = tested on: T47D (Breast Carcinoma)
# Outline: as §1
# [11] = tested on: NB1 (Neuroblastoma)
# Outline: as §1
# [12] = tested on: OVCAR-3 (Ovarian Carcinoma)
# Outline: as §1
# [13] = tested on: GAK (Melanoma)
# Outline: as §1
# [14] = tested on: MOLP-8 (Plasma Cell Myeloma)
# Outline: as §1
# [15] = tested on: CPC-N (Small Cell Lung Carcinoma)
# Outline: as §1
# [16] = tested on: P32-ISH (Burkitt's Lymphoma)
# Outline: as §1
# [17] = tested on: MM1S (Plasma Cell Myeloma)
# Outline: as §1
# [18] = tested on: OAW-28 (Ovarian Carcinoma)
# Outline: as §1
# [19] = tested on: P30-OHK (B-Lymphoblastic Leukemia)
# Outline: as §1
# [20] = tested on: HT-1080 (Other Solid Carcinomas)
# Outline: as §1
Structure (SMILES),Bliss excess [1],Bliss excess [2],Bliss excess [3],Bliss excess [4],Bliss excess [5],Bliss excess [6],Bliss excess [7],Bliss excess [8],Bliss excess [9],Bliss excess [10],Bliss excess [11],Bliss excess [12],Bliss excess [13],Bliss excess [14],Bliss excess [15],Bliss excess [16],Bliss excess [17],Bliss excess [18],Bliss excess [19],Bliss excess [20]
"COc1nnc2ccc(N3CCC(c4ccc(OCCN5CCN(C)C(=O)[C@H]5C)cc4)CC3)nn12 [AZD5153] + Cn1cnc2c(F)c(Nc3ccc(Br)cc3Cl)c(C(=O)NOCCO)cc21 [Selumetinib] (first compound max 1 µM, 7x7, partner max 10 µM)",-0.0196,0.0725,0.0423,-0.014,-0.0142,-0.045,0.053,0.0264,-0.0499,0.0101,-0.0454,-0.0489,-0.0532,0.0094,-0.0222,-0.0417,0.109,0.0279,-0.0004,0.0587
"Cc1c2c(nn1C)CSCc1cc(n(C)n1)CSc1cc(c3ccccc3c1)OCCCc1c(C(=O)O)n(C)c3c-2c(Cl)ccc13 [AZD5991] + C1CN(CCC1(C(=O)N[C@@H](CCO)C2=CC=C(C=C2)Cl)N)C3=NC=NC4=C3C=CN4 [Capivasertib] (first compound max 1 µM, 7x7, partner max 3 µM)",-0.0058,0.0063,-0.01,-0.0215,0.011,-0.0473,-0.0055,-0.0042,0.0708,-0.0887,-0.0186,0.0217,-0.029,0.0077,0.0177,0.0276,-0.0098,0.045,0.0273,-0.0594
"Cc1c2c(nn1C)CSCc1cc(n(C)n1)CSc1cc(c3ccccc3c1)OCCCc1c(C(=O)O)n(C)c3c-2c(Cl)ccc13 [AZD5991] + C=CCn1c(=O)c2cnc(Nc3ccc(N4CCN(C)CC4)cc3)nc2n1-c1cccc(C(C)(C)O)n1 [AZD1775] (first compound max 1 µM, partner max 1 µM)",-0.0463,-0.0556,-0.0321,0.005,-0.0163,0.018,0.0814,-0.098,-0.0292,-0.0369,-0.0156,0.031,-0.0077,-0.0041,-0.0453,-0.0228,0.0547,0.0049,0.0077,0.0345
"Cc1c2c(nn1C)CSCc1cc(n(C)n1)CSc1cc(c3ccccc3c1)OCCCc1c(C(=O)O)n(C)c3c-2c(Cl)ccc13 [AZD5991] + CC1(C)CCC(CN2CCN(c3ccc(C(=O)NS(=O)(=O)c4ccc(NCC5CCOCC5)c([N+](=O)[O-])c4)c(Oc4cnc5[nH]ccc5c4)c3)CC2)=C(c2ccc(Cl)cc2)C1 [Venetoclax] (first compound max 1 µM, 7x7, partner max 1 µM)",0.136,-0.006,-0.0031,-0.0233,0.151,-0.0582,-0.0065,-0.0159,0.12,-0.0042,-0.0178,-0.0103,0.0208,0.0174,-0.017,0.0054,0.0483,0.13,0.285,-0.0353
"Cc1c2c(nn1C)CSCc1cc(n(C)n1)CSc1cc(c3ccccc3c1)OCCCc1c(C(=O)O)n(C)c3c-2c(Cl)ccc13 [AZD5991] + CN(C)CCCOc1ccc(-c2ccc3ncc4c(c3c2)n(C2CCOCC2)c(=O)n4C)cn1 [AZD0156] (first compound max 1 µM, 7x7, partner max 1 µM)",-0.0129,-0.0089,0.0146,0.0252,0.0204,0.0125,-0.0113,-0.0032,0.0541,0.0093,-0.0522,0.0405,0.0152,0.0086,-0.0129,0.0083,0.0391,0.0335,-0.0042,-0.0148
"Cc1c2c(nn1C)CSCc1cc(n(C)n1)CSc1cc(c3ccccc3c1)OCCCc1c(C(=O)O)n(C)c3c-2c(Cl)ccc13 [AZD5991] + C[C@@H]1COCCN1C2=NC(=NC(=C2)C3(CC3)[S@](=N)(=O)C)C4=C5C=CNC5=NC=C4 [AZD6738] (first compound max 1 µM, 7x7, partner max 10 µM)",0.0555,-0.0501,0.0151,0.0578,-0.0225,0.0298,0.0289,-0.0346,0.0961,0.0333,0.0343,0.0623,0.0034,0.0254,-0.024,0.0231,0.102,0.0799,0.0592,0.0041
"Cc1c2c(nn1C)CSCc1cc(n(C)n1)CSc1cc(c3ccccc3c1)OCCCc1c(C(=O)O)n(C)c3c-2c(Cl)ccc13 [AZD5991] + C[C@@H](Nc1cc(F)cc(F)c1)c1cc(C(=O)N(C)C)cc2c(=O)cc(N3CCOCC3)oc12 [AZD8186] (first compound max 1 µM, 7x7, partner max 3 µM)",-0.0524,-0.0463,0.0295,0.0008,-0.0094,-0.0268,0.0045,-0.0142,0.0156,-0.0323,-0.0275,0.0423,0.0257,0.0039,-0.0085,0.0273,0.0187,0.0538,0.0058,-0.0338
"Cc1c2c(nn1C)CSCc1cc(n(C)n1)CSc1cc(c3ccccc3c1)OCCCc1c(C(=O)O)n(C)c3c-2c(Cl)ccc13 [AZD5991] + Cc1cc2ncnn2cc1Nc1ncc2c(n1)n(C1CCOCC1)c(=O)n2C [AZD7648] (first compound max 1 µM, 7x7, partner max 10 µM)",-0.0006,-0.0586,-0.051,-0.0436,-0.0211,-0.061,-0.0745,0.0092,-0.0266,-0.0159,-0.0197,-0.0311,-0.021,0.0192,-0.0109,0.0465,0.0085,0.0125,-0.0222,-0.0256
"Cc1c2c(nn1C)CSCc1cc(n(C)n1)CSc1cc(c3ccccc3c1)OCCCc1c(C(=O)O)n(C)c3c-2c(Cl)ccc13 [AZD5991] + Cn1cnc2c(F)c(Nc3ccc(Br)cc3Cl)c(C(=O)NOCCO)cc21 [Selumetinib] (first compound max 1 µM, 7x7, partner max 3 µM)",-0.0114,0.0077,0.0457,0.0307,-0.0515,-0.0684,-0.039,0.0513,0.0841,-0.0092,-0.0181,0.0353,-0.0093,0.0291,0.0185,0.0025,0.0828,0.089,0.0011,0.0108
"C[C@@H]1COCCN1c1cc(C2([S@](C)(=N)=O)CC2)nc(-c2ccnc3[nH]ccc23)n1 [AZD6738] + O=C(c1cc(Cc2n[nH]c(=O)c3ccccc23)ccc1F)N1CCN(C(=O)C2CC2)CC1 [Olaparib] (first compound max 10 µM, 7x7, partner max 10 µM)",-0.12,-0.0049,0.0472,0.0096,-0.0667,-0.0156,0.0128,-0.0391,-0.005,0.0359,-0.058,0.0782,0.0019,0.003,0.015,-0.0424,-0.0388,-0.0159,0.0469,0.0128
"Cc1cc2ncnn2cc1Nc1ncc2c(n1)n(C1CCOCC1)c(=O)n2C [AZD7648] + C=CCn1c(=O)c2cnc(Nc3ccc(N4CCN(C)CC4)cc3)nc2n1-c1cccc(C(C)(C)O)n1 [AZD1775] (first compound max 10 µM, partner max 1 µM)",-0.0543,0.0409,-0.0563,0.0039,-0.0069,-0.004,-0.0031,-0.0645,0.0508,-0.0146,-0.0015,-0.0355,-0.0275,0.0123,-0.0055,-0.0011,-0.0401,-0.0066,0.0014,0.0591
"Cc1cc2ncnn2cc1Nc1ncc2c(n1)n(C1CCOCC1)c(=O)n2C [AZD7648] + CCN(CCO)CCCOc1ccc2c(Nc3cc(CC(=O)Nc4cccc(F)c4)[nH]n3)ncnc2c1 [AZD2811] (first compound max 10 µM, 7x7, partner max 1 µM)",0.0077,0.045,0.0056,-0.0028,0.0001,-0.0733,-0.0042,0.0104,-0.074,0.055,-0.0026,0.0046,-0.035,0.0616,-0.0306,-0.0367,0.0333,0.0284,-0.0267,0.0364
"Cc1cc2ncnn2cc1Nc1ncc2c(n1)n(C1CCOCC1)c(=O)n2C [AZD7648] + CN(C)CCCOc1ccc(-c2ccc3ncc4c(c3c2)n(C2CCOCC2)c(=O)n4C)cn1 [AZD0156] (first compound max 10 µM, 7x7, partner max 1 µM)",-0.0326,0.033,0.0174,-0.0363,-0.0046,-0.0393,-0.0234,-0.0187,0.0523,0.0055,0.0084,0.0157,0.0232,0.0712,0.0326,0.0153,0.0196,-0.0115,0.0194,-0.0246
"Cc1cc2ncnn2cc1Nc1ncc2c(n1)n(C1CCOCC1)c(=O)n2C [AZD7648] + C[C@@H]1COCCN1C2=NC(=NC(=C2)C3(CC3)[S@](=N)(=O)C)C4=C5C=CNC5=NC=C4 [AZD6738] (first compound max 10 µM, 7x7, partner max 10 µM)",0.0291,0.007,0.003,-0.0174,0.0026,0.046,-0.0082,0.0327,0.0004,0.0444,0.0428,0.0009,0.0104,0.0234,-0.0013,-0.0029,0.014,0.033,0.0253,-0.0459
"Cc1cc2ncnn2cc1Nc1ncc2c(n1)n(C1CCOCC1)c(=O)n2C [AZD7648] + O=C(c1cc(Cc2n[nH]c(=O)c3ccccc23)ccc1F)N1CCN(C(=O)C2CC2)CC1 [Olaparib] (first compound max 10 µM, 7x7, partner max 10 µM)",-0.0432,-0.0107,-0.0047,-0.0477,0.0056,-0.0801,-0.0341,-0.0353,0.0216,-0.042,-0.0431,-0.0257,-0.0379,-0.0267,0.0169,-0.0413,0.0141,-0.0127,0.0285,-0.0165
